In PubChem BioAssay (NCI):
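A five-concentration, 48-hour dose response in 96-well plates underlies each endpoint, interpolated linearly between surrounding concentrations. Here, GI50 denotes the concentration required for 50% inhibition of growth. TGI denotes the concentration required for complete inhibition of growth.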

Tests used:
Assay in all cases: inhibition of tumour cell growth, NCI panel, 48 h
EKVX NSCLC = test system: EKVX NSCLC
MOLT-4 leukemia = test system: MOLT-4 leukemia
TK-10 renal = test system: TK-10 renal
SN12C renal = test system: SN12C renal
HL-60(TB) leukemia = test system: HL-60(TB) leukemia
SNB-19 CNS = test system: SNB-19 CNS
SF-295 CNS = test system: SF-295 CNS
MALME-3M melanoma = test system: MALME-3M melanoma
HT29 colon = test system: HT29 colon
RXF 393 renal = test system: RXF 393 renal

SMILES	TGI (EKVX NSCLC) [µM]	TGI (MOLT-4 leukemia) [µM]	TGI (TK-10 renal) [µM]	TGI (SN12C renal) [µM]	TGI (HL-60(TB) leukemia) [µM]	TGI (SNB-19 CNS) [µM]	TGI (SF-295 CNS) [µM]	TGI (MALME-3M melanoma) [µM]	TGI (HT29 colon) [µM]	TGI (RXF 393 renal) [µM]	GI50 (EKVX NSCLC) [µM]	GI50 (MOLT-4 leukemia) [µM]	GI50 (TK-10 renal) [µM]	GI50 (SN12C renal) [µM]	GI50 (HL-60(TB) leukemia) [µM]	GI50 (SNB-19 CNS) [µM]	GI50 (RXF 393 renal) [µM]	GI50 (SF-295 CNS) [µM]	GI50 (MALME-3M melanoma) [µM]	GI50 (HT29 colon) [µM]
CC1CC/C(=C\c2ccc(Cl)cc2)c2nc(N)c(C#N)c(-c3ccc(Cl)cc3)c21 (stereo not given)	> 100	> 100	> 100	> 100	15.4	69.5	> 100	62	> 100	–	–	–	–	–	–	–	–	–	–	–
COc1ccc(CCN2CCc3c(C)c(C#N)c4nc5ccccc5n4c32)cc1OC	–	–	> 100	> 100	> 100	> 100	> 100	99.8	> 100	> 100	–	–	–	–	–	–	–	–	–	–
O=[N+]([O-])c1cccnc1-n1cnc2ccccc21	> 100	> 100	> 100	–	> 100	–	> 100	> 100	> 100	> 100	–	–	–	–	–	–	–	–	–	–
COc1ccc2nc3n(c2c1)CCc1cc(OC)c(OC)cc1-3	> 100	–	> 100	> 100	> 100	> 100	> 100	> 100	95.8	> 100	–	–	–	–	–	–	–	–	–	–
CC(=O)Nc1cc(Nc2cc(=O)[nH]c(=O)[nH]2)ccc1C	> 100	–	> 100	> 100	> 100	> 100	> 100	> 100	–	> 100	–	–	–	–	–	–	–	–	–	–
CCOC(=O)C1CCCCN1CCc1c[nH]c2ccccc12 (stereo not given)	> 100	> 100	> 100	> 100	–	> 100	> 100	> 100	> 100	> 100	–	–	–	–	–	–	–	–	–	–
CN(C)c1ccc(/C=C2\N=C(c3ccccc3)N(c3ccc4c(c3)Sc3cc(N5C(=O)/C(=C/c6ccc(N(C)C)cc6)N=C5c5ccccc5)ccc3N4)C2=O)cc1	74.8	> 100	31.1	38.9	61.9	31.3	36	–	> 100	–	–	–	–	–	–	–	–	–	–	–
CCOC(=O)c1cn(C)c(=S)n2c1nc1ccccc12	> 100	> 100	–	> 100	–	> 100	> 100	–	–	> 100	–	–	–	–	–	–	–	–	–	–
c1ccc(-c2nnn(CCN3CCCCC3)n2)cc1	> 100	–	> 100	> 100	> 100	> 100	> 100	> 100	> 100	> 100	–	–	–	–	–	–	–	–	–	–
CO[C@]1(CN2CCN3CCCC[C@@H]3C2)/C=C/C[C@H](C)[C@@H](C)S(=O)(=O)NC(=O)c2ccc3c(c2)N(C[C@@H]2CC[C@H]21)C[C@@]1(CCCc2cc(Cl)ccc21)CO3	5.1	2.1	6.39	3.08	0.153	4.62	–	–	–	–	1.55	0.198	2.33	1.6	0.0297	2.02	–	–	–	–
CCOP(=O)(OCC)/C(C#N)=C/c1cccn1Cc1ccccc1	> 100	75.5	> 100	> 100	–	> 100	97.6	> 100	> 100	> 100	–	–	–	–	–	–	–	–	–	–
O=C(Nc1cccc(-n2cc(-c3ccncc3)c(-c3ccc(O)c(Cl)c3)n2)c1)c1cccc(C(F)(F)F)c1	–	> 100	> 100	> 100	6.76	> 100	> 100	> 100	> 100	5.64	–	2.96	7.18	6.44	2.68	9.36	1.1	2.98	5.59	5.18
CC(C)OC1OC(CO)C(O)CC1n1cc(F)c(=O)[nH]c1=O (stereo not given)	> 100	–	> 100	> 100	–	> 100	> 100	> 100	> 100	> 100	–	–	–	–	–	–	–	–	–	–
C/C(=N\Nc1nc2ccccc2[nH]1)c1cc2ccccc2cn1	1.35	> 100	5.16	1.06	–	1.64	–	0.664	1.02	–	–	–	–	–	–	–	–	–	–	–
Cc1cc2c(c(=O)n1C)SCC2	–	> 100	> 100	> 100	–	> 100	> 100	> 100	> 100	> 100	–	–	–	–	–	–	–	–	–	–
NCCC1CN(C(=O)OCc2ccccc2)c2ccccc21 (stereo not given)	84.4	52.1	> 54.8	27.3	–	> 51.3	40.3	29.1	25.8	32.3	–	–	–	–	–	–	–	–	–	–
